This note sets out measurements from US8198217B2, “Composition for weeding” (Kumiai Chemical Industry Co., Ltd., priority 2007, dated 2012).

The test system of one data set is corn (ZEAMX). Put plainly: Weed control effect test by stems-and-leaves treatment: phytotoxicity to corn. The format is in vivo. The conditions noted are these: 30th day from treatment. As for the experimental part:
A plastic pot of 1/2000 are area was each filled with a dry-field soil where the respective seeds of corn (ZEAMX), pitted morningglory (IPOLA), velvet leaf (ABUTH) and lamb's-quarters (CHEAL) were sowed and tuberous roots of yellow nutsedge (CYPES) were buried followed by pooling of water from the bottom part of the pot. These seeds and tuberous roots were grown in a greenhouse. […] Thereafter, growing was continued in the glasshouse to record the weed control effect and the extent of phytotoxicity on the 30th day from the treatment as indexes according to the criteria given in Table 1. The dosages are given in terms of the amount of the active ingredients per hectare (ha).

The subject of a further data set is lamb's-quarters (CHEAL). Briefly: Weed control effect test by stems-and-leaves treatment. The class given is in vivo. Conditions: 30th day from treatment. How it is done:
(§1) A plastic pot of 1/2000 are area was each filled with a dry-field soil where the respective seeds of corn (ZEAMX), pitted morningglory (IPOLA), velvet leaf (ABUTH) and lamb's-quarters (CHEAL) were sowed and tuberous roots of yellow nutsedge (CYPES) were buried followed by pooling of water from the bottom part of the pot. These seeds and tuberous roots were grown in a greenhouse. On the day when the pitted morningglory had reached its 4 leaves stage, a stems-and-leaves treatment was undertaken on the whole plant bodies with agents each prepared by dilution of a specified amount of the water-dispersible granules prepared in the same manner as in Example 3, 4 and 5 with water, respectively. Thereafter, growing was continued in the glasshouse to record the weed control effect and the extent of phytotoxicity on the 30th day from the treatment as indexes according to the criteria given in Table 1. The dosages are given in terms of the amount of the active ingredients per hectare (ha).

Data set [1] has as its system pitted morningglory (IPOLA). The data set is described as above. The class given is in vivo. Conditions: 30th day from treatment. How it is done: as §1
The next data set has as its system velvet leaf (ABUTH). Described as above. Conditions: 30th day from treatment. The format is in vivo. As for the experimental part: as §1
Another data set deals with yellow nutsedge (CYPES). The description is as above. The format is in vivo. Conditions: 30th day from treatment. As for the experimental part: as §1
The next data set deals with paddy rice plants (Or). Put plainly: Weed control effect test on paddy fields: phytotoxicity to paddy rice. The class given is in vivo. The conditions noted are these: applied onto water surface, 25th day from treatment. The text has this: (§2) A plastic pot of 1/20000 are area was each filled with a paddy field soil which was manured and shuffled followed by sowing of the respective seeds of early watergrass (ECHOR), heartshape false pickerelweed (MOOVA), rock's bulrush (SCIJO) and marsh dayflower (ANEKE) and burying of tuberous roots of tidalmarsh flatsedge (CYPSE) followed by pooling of water in a water depth of 1 cm. And, paddy rice plants (Or) at the two-leaves stage were transplanted to the same pot and grown in a greenhouse. Thereafter, on the day when the early watergrass had reached its 2.5 leaves stage, pooling of water was undertaken in order to make the water depth to 3 cm and agents each prepared by dilution of a specified amount of the wettable powder prepared in the same manner as in Example 1 and 2 with water was applied onto the water surface, respectively. Then, growing was continued keeping the pooling water depth of 3 cm to record the weed control effect and the extent of phytotoxicity on the 25th day from the treatment as indexes according to the criteria given in Table 1. The dosages are given in terms of the amount of the active ingredients per 10 ares area.

The test system of a further data set is early watergrass (ECHOR). Put plainly: Weed control effect test on paddy fields. The class given is in vivo, Echinochloa oryzicola. Conditions: applied onto water surface, 25th day from treatment.
Description: as §2

The test system of data set [2] is heartshape false pickerelweed (MOOVA). Put plainly: Weed control effect test on paddy fields. The class given is in vivo, Monochoria vaginalis. Conditions: applied onto water surface, 25th day from treatment.
Description: as §2

A further data set relates to rock's bulrush (SCIJO). Briefly: Weed control effect test on paddy fields. The class given is in vivo, Scirpus juncoides. Conditions: applied onto water surface, 25th day from treatment.
Description: as §2

Data set [3] relates to tidalmarsh flatsedge (CYPSE). Put plainly: Weed control effect test on paddy fields. Conditions: applied onto water surface, 25th day from treatment. The format is in vivo, Cyperus serotinus.
Description: as §2

The test system of another data set is marsh dayflower (ANEKE). Put plainly: Weed control effect test on paddy fields. The class given is in vivo. The conditions noted are these: applied onto water surface, 25th day from treatment.
Description: as §2

As to `COC(=O)CSc1cc(/N=c2\sc(=O)n3n2CCCC3)c(F)cc1Cl` [fluthiacet-methyl], the “extent of phytotoxicity index, ZEAMX” value in the data set on corn (ZEAMX) (5 g a.i./ha) is listed as 0 (less than 5% growth inhibition). For the same molecule, the “weed control effect index, CHEAL” value in the data set with lamb's-quarters (CHEAL) (5 g a.i./ha) is 8 (not less than 75% but less than 85% growth inhibition). Also, the “weed control effect index, IPOLA” value in [1] (5 g a.i./ha) is reported as 3 (not less than 25% but less than 35% growth inhibition). Moreover, the “weed control effect index, ABUTH” value with velvet leaf (ABUTH) (5 g a.i./ha) is on record as 9 (not less than 85% but less than 95% growth inhibition). Besides, in the data set on yellow nutsedge (CYPES) (5 g a.i./ha), the “weed control effect index, CYPES” value is 2 (not less than 15% but less than 25% growth inhibition).

With `COCc1cccc(C(O)c2nc(OC)cc(OC)n2)c1NS(=O)(=O)C(F)F` (stereo not shown) [Compound A-1, 2-[(4,6-dimethoxypyrimidin-2-yl)hydroxymethyl]-6-methoxymethyl-N-difluoromethanesulfonylanilide], the “extent of phytotoxicity index, OR” value in the data set with paddy rice plants (Or) (3 g a.i./10a) is 0 (less than 5% growth inhibition). In the data set with early watergrass (ECHOR) (3 g a.i./10a), the “weed control effect index, ECHOR” value was 7 (not less than 65% but less than 75% growth inhibition). Further, the “weed control effect index, MOOVA” value in [2] (3 g a.i./10a) is 7 (not less than 65% but less than 75% growth inhibition). Further, the “weed control effect index, SCIJO” value in the data set on rock's bulrush (SCIJO) (3 g a.i./10a) is recorded as 8 (not less than 75% but less than 85% growth inhibition). Besides, in data set [3] (3 g a.i./10a), the “weed control effect index, CYPSE” value is 8 (not less than 75% but less than 85% growth inhibition). The “weed control effect index, ANEKE” value with marsh dayflower (ANEKE) (3 g a.i./10a) is on record as 2 (not less than 15% but less than 25% growth inhibition). The “extent of phytotoxicity index, ZEAMX” value with corn (ZEAMX) (10 g a.i./ha) is 0 (less than 5% growth inhibition). Also, the “weed control effect index, CHEAL” value in the data set on lamb's-quarters (CHEAL) (10 g a.i./ha) is reported as 1 (not less than 5% but less than 15% growth inhibition). Moreover, the “weed control effect index, IPOLA” value in data set [1] (10 g a.i./ha) is given as 6 (not less than 55% but less than 65% growth inhibition). In addition, the “weed control effect index, ABUTH” value in the data set with velvet leaf (ABUTH) (10 g a.i./ha) is 5 (not less than 45% but less than 55% growth inhibition). In addition, the “weed control effect index, CYPES” value with yellow nutsedge (CYPES) (10 g a.i./ha) is on record as 7 (not less than 65% but less than 75% growth inhibition).

As to `CCC1(CC2(c3cccc(Cl)c3)CO2)C(=O)c2ccccc2C1=O` (stereo not shown) [indanofan], the “weed control effect index, ECHOR” value in the data set with early watergrass (ECHOR) (15 g a.i./10a) was 6 (not less than 55% but less than 65% growth inhibition). Also, the “weed control effect index, MOOVA” value in data set [2] (15 g a.i./10a) is given as 5 (not less than 45% but less than 55% growth inhibition). For the same molecule, in the data set on rock's bulrush (SCIJO) (15 g a.i./10a), the “weed control effect index, SCIJO” value was 3 (not less than 25% but less than 35% growth inhibition). The “weed control effect index, CYPSE” value in data set [3] (15 g a.i./10a) is on record as 1 (not less than 5% but less than 15% growth inhibition). Further, in the data set on marsh dayflower (ANEKE) (15 g a.i./10a), the “weed control effect index, ANEKE” value was 5 (not less than 45% but less than 55% growth inhibition).

In the case of `CCNc1nc(Cl)nc(NC(C)C)n1` [atrazine], the “extent of phytotoxicity index, ZEAMX” value with corn (ZEAMX) (1000 g a.i./ha) is reported as 0 (less than 5% growth inhibition). Further, in the data set on lamb's-quarters (CHEAL) (1000 g a.i./ha), the “weed control effect index, CHEAL” value is listed as 8 (not less than 75% but less than 85% growth inhibition). Also, the “weed control effect index, IPOLA” value in [1] (1000 g a.i./ha) is reported as 3 (not less than 25% but less than 35% growth inhibition). The “weed control effect index, ABUTH” value with velvet leaf (ABUTH) (1000 g a.i./ha) is on record as 3 (not less than 25% but less than 35% growth inhibition). The “weed control effect index, CYPES” value in the data set on yellow nutsedge (CYPES) (1000 g a.i./ha) is reported as 3 (not less than 25% but less than 35% growth inhibition).

For the molecule `COc1cc(OC)nc(NC(=O)NS(=O)(=O)c2ncccc2C(=O)N(C)C)n1` [nicosulfuron], the “extent of phytotoxicity index, ZEAMX” value in the data set with corn (ZEAMX) (35 g a.i./ha) is 0 (less than 5% growth inhibition). In addition, the “weed control effect index, CHEAL” value in the data set with lamb's-quarters (CHEAL) (35 g a.i./ha) is 8 (not less than 75% but less than 85% growth inhibition). Moreover, in [1] (35 g a.i./ha), the “weed control effect index, IPOLA” value is given as 3 (not less than 25% but less than 35% growth inhibition). Besides, the “weed control effect index, ABUTH” value in the data set with velvet leaf (ABUTH) (35 g a.i./ha) is on record as 2 (not less than 15% but less than 25% growth inhibition). Further, the “weed control effect index, CYPES” value in the data set with yellow nutsedge (CYPES) (35 g a.i./ha) is on record as 4 (not less than 35% but less than 45% growth inhibition).

With `CCCc1ccc2nc(Cl)c(S(=O)(=O)NC(=O)Nc3nc(OC)cc(OC)n3)n2n1` [TH-547, 1-(2-chloro-6-propylimidazo[1,2-b]pyridazin-3-ylsulfonyl)-3-(4,6-dimethoxypyrimidin-2-yl)urea], in the data set with paddy rice plants (Or) (7 g a.i./10a), the “extent of phytotoxicity index, OR” value is reported as 0 (less than 5% growth inhibition). The “weed control effect index, ECHOR” value with early watergrass (ECHOR) (7 g a.i./10a) is recorded as 7 (not less than 65% but less than 75% growth inhibition). Further, the “weed control effect index, MOOVA” value in data set [2] (7 g a.i./10a) is reported as 7 (not less than 65% but less than 75% growth inhibition). Further, the “weed control effect index, SCIJO” value with rock's bulrush (SCIJO) (7 g a.i./10a) is on record as 6 (not less than 55% but less than 65% growth inhibition). For the same molecule, in [3] (7 g a.i./10a), the “weed control effect index, CYPSE” value was 6 (not less than 55% but less than 65% growth inhibition). For the same molecule, the “weed control effect index, ANEKE” value with marsh dayflower (ANEKE) (7 g a.i./10a) is 4 (not less than 35% but less than 45% growth inhibition).
